Measured values from patent publication US7531543B2, “Phenylpiperazine cycloalkanol derivatives and methods of their use” (Wyeth, priority 2003, dated 2009).
Where a name gives a salt, the structure may show the parent alone.

Biological target: T1, human hNET (Homo sapiens, UniProt P23975)
T1 construct: expressed in transfected cells; host or cells: MDCK-Net6 (MDCK cells stably transfected with hNET)
Assay: Norepinephrine (NE) uptake assay in MDCK-Net6 cells
Assay type: cell-based
Settings: [3H]NE uptake, MDCK-Net6 cells stably transfected with hNET; for EC50: test range 1 to 10,000 nM
Procedure: MDCK-Net6 cells, stably transfected with human hNET (Pacholczyk, T., R. D. Blakely, and S. G. Amara, Nature, 1991, 350(6316): p. 350-4) were cultured in growth medium containing high glucose DMEM (Gibco, Cat. No. 11995), 10% FBS (dialyzed, heat-inactivated, US Bio-Technologies, Lot FBD1129HI) and 500 µg/ml G418 (Gibco, Cat. No. 10131). Cells were plated at 300,000/T75 flask and cells were split twice weekly. The JAR cell line (human placental choriocarcinoma) was purchased from ATCC (Cat. No. HTB-144). The cells were cultured in growth medium containing RPMI 1640 (Gibco, Cat. No. 72400), 10% FBS (Irvine, Cat. No. 3000), 1% sodium pyruvate (Gibco, Cat. No. 1136) and 0.25% glucose. Cells were plated at 250,000 cells/T75 flask and split twice weekly. For all assays, cells were plated in Wallac 96-well sterile plates (PerkinElmer, Cat. No. 3983498).
Norepinephrine (NE) Uptake Assay
On day 1, cells were plated at 3,000 cells/well in growth medium and maintained in a cell incubator (37° C., 5% CO2). On day 2, growth medium was replaced with 200 μl of assay buffer (25 mM HEPES; 120 mM NaCl; 5 mM KCl; 2.5 mM CaCl2; 1.2 mM MgSO4; 2 mg/ml glucose (pH 7.4, 37° C.)) containing 0.2 mg/ml ascorbic acid and 10 μM pargyline. Plates containing cells with 200 μl of assay buffer were equilibrated for 10 minutes at 37° C. prior to addition of compounds. A stock solution of desipramine was prepared in DMSO (10 mM) and delivered to triplicate wells containing cells for a final test concentration of 1 μM. Data from these wells were used to define non-specific NE uptake (minimum NE uptake). Test compounds were prepared in DMSO (10 mM) and diluted in assay buffer according to test range (1 to 10,000 nM). Twenty-five microliters of assay buffer (maximum NE uptake) or test compound were added directly to triplicate wells containing cells in 200 μl of assay buffer. The cells in assay buffer with test compounds were incubated for 20 minutes at 37° C. To initiate the NE uptake, [^3H]NE diluted in assay buffer (120 nM final assay concentration) was delivered in 25 μl aliquots to each well and the plates were incubated for 5 minutes (37° C.). The reaction was terminated by decanting the supernatant from the plate. The plates containing cells were washed twice with 200 μl assay buffer (37° C.) to remove free radioligand. The plates were then inverted, left to dry for 2 minutes, then reinverted and air-dried for an additional 10 minutes. The cells were lysed in 25 μl of 0.25 N NaOH solution (4° C.), placed on a shake table and vigorously shaken for 5 minutes. After cell lysis, 75 μl of scintillation cocktail was added to each well and the plates were sealed with film tape. The plates were returned to the shake table and vigorously shaken for a minimum of 10 minutes to ensure adequate partitioning of organic and aqueous solutions. The plates were counted in a Wallac Microbeta counter (PerkinElmer) to collect the raw cpm data.
For each experiment, a data stream of cpm values collected from the Wallac Microbeta counter was downloaded to a Microsoft Excel statistical application program. Calculations of EC50 values were made using the transformed-both-sides logistic dose response program written by Wyeth Biometrics Department. The statistical program uses mean cpm values from wells representing maximum binding or uptake (assay buffer) and mean cpm values from wells representing minimum binding or uptake ((1 μM desipramine (hNET) or 1 μM paroxetine (hSERT)). Estimation of the EC50 value was completed on a log scale and the line was fit between the maximum and minimum binding or uptake values. All graphic data representation was generated by normalizing each data point to a mean percent based on the maximum and minimum binding or uptake values. The EC50 values reported from multiple experiments were calculated by pooling the raw data from each experiment and analyzing the pooled data as one experiment.

T1 sequence (P23975 whole entry): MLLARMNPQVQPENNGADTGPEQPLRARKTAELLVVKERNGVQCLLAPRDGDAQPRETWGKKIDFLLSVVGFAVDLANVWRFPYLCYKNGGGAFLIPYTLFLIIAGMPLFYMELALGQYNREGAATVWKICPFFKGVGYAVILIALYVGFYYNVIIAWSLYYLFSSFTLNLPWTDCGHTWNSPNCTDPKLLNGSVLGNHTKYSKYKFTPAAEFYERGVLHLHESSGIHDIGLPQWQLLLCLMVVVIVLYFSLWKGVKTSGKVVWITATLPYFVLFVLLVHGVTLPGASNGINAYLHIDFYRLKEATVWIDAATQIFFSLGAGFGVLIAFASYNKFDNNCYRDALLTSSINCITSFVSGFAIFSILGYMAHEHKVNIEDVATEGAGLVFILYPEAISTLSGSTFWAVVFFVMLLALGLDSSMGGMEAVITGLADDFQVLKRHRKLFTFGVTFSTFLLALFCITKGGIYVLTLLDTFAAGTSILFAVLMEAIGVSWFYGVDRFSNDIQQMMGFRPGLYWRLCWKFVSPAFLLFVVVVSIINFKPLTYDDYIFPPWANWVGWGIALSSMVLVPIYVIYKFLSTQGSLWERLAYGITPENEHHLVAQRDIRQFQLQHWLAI

## C[C@@H]1CN(CC(c2cccc(Cl)c2)C2(O)CCCCC2)C[C@H](C)N1 (stereo partly drawn) [Example 2, 1-{1-(3-chlorophenyl)-2-[(3R,5S)-3,5-dimethylpiperazin-1-yl]ethyl}cyclohexanol dihydrochloride]
1 μM test compound
  inhibition at 1 µM: 97%
  EC50: 150 nM

## OC1(C(CN2CCNCC2)c2cccc(Br)c2)CCCCC1 (stereo not drawn) [Example 3, 1-[1-(3-bromophenyl)-2-piperazin-1-ylethyl]cyclohexanol dihydrochloride]
1 μM test compound
  inhibition at 1 µM: 96%
  EC50: 100 nM

## C[C@H]1CN(CC(c2cccc(Cl)c2)C2(O)CCCCC2)CCN1 (stereo partly drawn) [Example 4, 1-{1-(3-chlorophenyl)-2-[(3S)-3-methylpiperazin-1-yl]ethyl}cyclohexanol dihydrochloride]
1 μM test compound
  inhibition at 1 µM: 95%
  EC50: 59 nM

## C[C@@H]1CN(CC(c2cccc(Cl)c2)C2(O)CCCCC2)CCN1 (stereo partly drawn) [Example 5, 1-{1-(3-chlorophenyl)-2-[(3R)-3-methylpiperazin-1-yl]ethyl}cyclohexanol dihydrochloride]
1 μM test compound
  inhibition at 1 µM: 94%
  EC50: 110 nM

## OC1(C(CN2CCNCC2)c2ccc(Cl)c(Cl)c2)CCCCC1 (stereo not drawn) [Example 6, 1-[1-(3,4-dichlorophenyl)-2-piperazin-1-ylethyl]cyclohexanol dihydrochloride]
1 μM test compound
  inhibition at 1 µM: 87%
  EC50: 210 nM

## OC1(C(CN2CCNCC2)c2cccc(Br)c2)CCCCCC1 (stereo not drawn) [Example 7, 1-[1-(3-bromophenyl)-2-piperazin-1-ylethyl]cycloheptanol dihydrochloride]
1 μM test compound
  inhibition at 1 µM: 86%

## OC1(C(CN2CCNCC2)c2cccc(Cl)c2)CCCCCC1 (stereo not drawn) [Example 8, 1-[1-(3-chlorophenyl)-2-piperazin-1-ylethyl]cycloheptanol dihydrochloride]
1 μM test compound
  inhibition at 1 µM: 81%

## OC1(C(CN2CCNCC2)c2cccc(F)c2)CCCCC1 (stereo not drawn) [Example 9, 1-[1-(3-fluorophenyl)-2-piperazin-1-ylethyl]cyclohexanol dihydrochloride]
1 μM test compound
  inhibition at 1 µM: 79%
  EC50: 720 nM

## OC1(C(CN2CCNCC2)c2cccc(Cl)c2)CCCC1 (stereo not drawn) [Example 10, 1-[1-(3-chlorophenyl)-2-piperazin-1-ylethyl]cyclopentanol dihydrochloride]
1 μM test compound
  inhibition at 1 µM: 63%

## OC1(C(CN2CCNCC2)c2ccc(F)cc2)CCCCC1 (stereo not drawn) [Example 11, 1-[1-(4-fluorophenyl)-2-piperazin-1-ylethyl]cyclohexanol dihydrochloride]
1 μM test compound
  inhibition at 1 µM: 60%
  EC50: 6400 nM

## OC1(C(CN2CCNCC2)c2ccc(Br)cc2)CCC1 (stereo not drawn) [Example 12, 1-[1-(4-bromophenyl)-2-piperazin-1-ylethyl]cyclobutanol dihydrochloride]
1 μM test compound
  inhibition at 1 µM: 55%

## COc1ccc(C(CN2CCNCC2)C2(O)CCCC2)cc1Br (stereo not drawn) [Example 13, 1-[1-(3-bromo-4-methoxyphenyl)-2-piperazin-1-ylethyl]cyclopentanol dihydrochloride]
1 μM test compound
  inhibition at 1 µM: 53%

## OC1(C(CN2CCNCC2)c2cccc(C(F)(F)F)c2)CCC1 (stereo not drawn) [Example 14, 1-{2-piperazin-1-yl-1-[3-(trifluoromethyl)phenyl]ethyl}cyclobutanol dihydrochloride]
1 μM test compound
  inhibition at 1 µM: 27%

## CN1CCN(CC(c2cccc(C(F)(F)F)c2)C2(O)CCC2)CC1 (stereo not drawn) [Example 15, 1-{2-(4-methylpiperazin-1-yl)-1-[3-(trifluoromethyl)phenyl]ethyl}cyclobutanol dihydrochloride]
1 μM test compound
  inhibition at 1 µM: 51%

## OC1(C(CN2CCNCC2)c2cccc(Br)c2)CCCC1 (stereo not drawn) [Example 16, 1-[1-(3-bromophenyl)-2-piperazin-1-ylethyl]cyclopentanol dihydrochloride]
1 μM test compound
  inhibition at 1 µM: 51%

## OC1(C(CN2CCNCC2)c2ccc(Br)cc2)CCCCC1 (stereo not drawn) [Example 17, 1-[1-(4-bromophenyl)-2-piperazin-1-ylethyl]cyclohexanol dihydrochloride]
1 μM test compound
  inhibition at 1 µM: 46%

## OC1(C(CN2CCNCC2)c2ccc(Cl)cc2)CCC1 (stereo not drawn) [Example 18, 1-[1-(4-chlorophenyl)-2-piperazin-1-ylethyl]cyclobutanol dihydrochloride]
1 μM test compound
  inhibition at 1 µM: 44%

## OC1(C(CN2CCNCC2)c2ccc(F)cc2)CCC1 (stereo not drawn) [Example 19, 1-[1-(4-fluorophenyl)-2-piperazin-1-ylethyl]cyclobutanol dihydrochloride]
1 μM test compound
  inhibition at 1 µM: 43%

## Cl.Cl.OC1(C(CN2CCNCC2)c2ccc(Br)cc2)CCC1 (stereo not drawn) [Example 20, 1-[1-(4-bromophenyl)-2-piperazin-1-ylethyl]cyclobutanol dihydrochloride]
1 μM test compound
  % Inhibition @ 1 μM (hNET): 55%

## CN1CCN(CC(c2ccc(Br)cc2)C2(O)CCC2)CC1 (stereo not drawn) [Example 21, 1-[1-(4-bromophenyl)-2-(4-methylpiperazin-1-yl)ethyl]cyclobutanol dihydrochloride]
1 μM test compound
  inhibition at 1 µM: 36%

## OC1(C(CN2CCNCC2)c2cccc(F)c2)CCC1 (stereo not drawn) [Example 22, 1-[1-(3-fluorophenyl)-2-piperazin-1-ylethyl]cyclobutanol dihydrochloride]
1 μM test compound
  inhibition at 1 µM: 34%

## OC1(C(CN2CCNCC2)c2cccc(Cl)c2)CCC1 (stereo not drawn) [Example 23, 1-[1-(3-chlorophenyl)-2-piperazin-1-ylethyl]cyclobutanol dihydrochloride]
1 μM test compound
  inhibition at 1 µM: 28%

## CN1CCN(CC(c2cccc(Cl)c2)C2(O)CCC2)CC1 (stereo not drawn) [Example 24, 1-[1-(3-chlorophenyl)-2-(4-methylpiperazin-1-yl)ethyl]cyclobutanol dihydrochloride]
1 μM test compound
  inhibition at 1 µM: 34%

## OC1(C(CN2CCNCC2)c2ccccc2F)CCCCC1 (stereo not drawn) [Example 25, 1-[1-(2-fluorophenyl)-2-piperazin-1-ylethyl]cyclohexanol dihydrochloride]
1 μM test compound
  inhibition at 1 µM: 31%

## OC1(C(CN2CCNCC2)c2ccc(Cl)cc2)CCCCC1 (stereo not drawn) [Example 26, 1-[1-(4-chlorophenyl)-2-piperazin-1-ylethyl]cyclohexanol dihydrochloride]
1 μM test compound
  inhibition at 1 µM: 29%

## OC1(C(CN2CCNCC2)c2cccc(Br)c2)CCC1 (stereo not drawn) [Example 27, 1-[1-(3-bromophenyl)-2-piperazin-1-ylethyl]cyclobutanol dihydrochloride]
1 μM test compound
  inhibition at 1 µM: 22%

## OC1(C(CN2CCNCC2)c2ccccc2F)CCC1 (stereo not drawn) [Example 28, 1-[1-(2-fluorophenyl)-2-piperazin-1-ylethyl]cyclobutanol dihydrochloride]
1 μM test compound
  inhibition at 1 µM: 14%

## CN1CCN(CC(c2cccc(F)c2)C2(O)CCC2)CC1 (stereo not drawn) [Example 29, 1-[1-(3-fluorophenyl)-2-(4-methylpiperazin-1-yl)ethyl]cyclobutanol dihydrochloride]
1 μM test compound
  inhibition at 1 µM: 12%

## CN1CCN(CC(c2ccc(Cl)cc2)C2(O)CCC2)CC1 (stereo not drawn) [Example 30, 1-[1-(4-chlorophenyl)-2-(4-methylpiperazin-1-yl)ethyl]cyclobutanol dihydrochloride]
1 μM test compound
  inhibition at 1 µM: -1%

## CN1CCN(CC(c2ccccc2F)C2(O)CCC2)CC1 (stereo not drawn) [Example 31, 1-[1-(2-fluorophenyl)-2-(4-methylpiperazin-1-yl)ethyl]cyclobutanol dihydrochloride]
1 μM test compound
  inhibition at 1 µM: -6%

## CN1CCN(CC(c2ccc(F)cc2)C2(O)CCC2)CC1 (stereo not drawn) [Example 32, 1-[1-(4-fluorophenyl)-2-(4-methylpiperazin-1-yl)ethyl]cyclobutanol dihydrochloride]
1 μM test compound
  inhibition at 1 µM: -10%

## OC1(C(CN2CCNCC2)c2ccccc2Br)CCCCC1 (stereo not drawn) [Example 33, 1-[1-(2-bromophenyl)-2-piperazin-1-ylethyl]cyclohexanol dihydrochloride]
1 μM test compound
  inhibition at 1 µM: 35%
